SMILES strings stand for the structures. Calls of active or inactive are those of the source. The calls are words filed in the database; no cut-off is given here.

Common to all, as to format: functional
Assay [1] concerns MSC. As to the kind of experiment: Induction of osteogenic activity in human MSC assessed as cell differentiation at 1 uM after 7 days by alizarin red staining-based spectrometry relative to vehicle-treated control.
Assay [2] is described as follows: (§1) Induction of osteogenic activity in human MSC assessed as cell differentiation at 1 uM after 14 days by alizarin red staining-based spectrometry relative to vehicle-treated control.
For assay [3], the system named is MSC. As to the kind of experiment: Induction of osteogenic activity in human MSC assessed as cell differentiation after 14 days by alizarin red staining-based spectrometry relative to vehicle-treated control.
For assay [4], the system named is MSC. As to the kind of experiment: Induction of osteogenic activity in human MSC assessed as increase in Dlx5 level at 1 uM after 14 days by quantitative RT-PCR analysis relative to control.
For assay [5], the system named is MSC. As to the kind of experiment: Induction of osteogenic activity in human MSC assessed as increase in Sp7 level at 1 uM after 14 days by quantitative RT-PCR analysis relative to control.
Assay [6] has as its system MSC. Put plainly: Induction of osteogenic activity in human MSC assessed as increase in ALP level at 1 uM after 14 days by quantitative RT-PCR analysis relative to control.
For assay [7], the system named is MSC. Put plainly: Induction of osteogenic activity in human MSC assessed as increase in ON level at 1 uM after 14 days by quantitative RT-PCR analysis relative to control.
Assay [8] has as its system MSC. Put plainly: Induction of osteogenic activity in human MSC assessed as increase in cFOS level at 1 uM after 14 days by quantitative RT-PCR analysis relative to control.
Assay [9] concerns MSC. Put plainly: Induction of osteogenic activity in human MSC assessed as increase in OP level at 1 uM after 14 days by quantitative RT-PCR analysis relative to control.
The subject of assay [10] is MSC. As to the kind of experiment: Induction of osteogenic activity in human MSC assessed as increase in Cola1 level at 1 uM after 14 days by quantitative RT-PCR analysis relative to control.
Assay [11] has as its system MSC. As to the kind of experiment: Induction of osteogenic activity in human MSC assessed as increase in cbfa1 level at 1 uM after 14 days by quantitative RT-PCR analysis relative to control.
The test system of assay [12] is MSC. As to the kind of experiment: Induction of osteogenic activity in human MSC assessed as increase in IGF1 level at 1 uM after 14 days by quantitative RT-PCR analysis relative to control.
Assay [13] deals with MSC. As to the kind of experiment: Induction of osteogenic activity in human MSC assessed as cell differentiation at 10 nM after 14 days by alizarin red staining-based spectrometry.
The subject of assay [14] is MSC. Described as §1.

In the case of `C=CCOc1ccc2c(=O)c(-c3ccc(O)cc3)coc2c1`, the result in assay [1] was Active. For the same molecule, in assay [2], the “fold change (FC)” value is reported as 1.3. The Activity result in assay [3] is “Dose-dependent effect”.
Turning to `CC(C)Oc1ccc2c(=O)c(-c3ccc(O)cc3)coc2c1`, the “fold change (FC)” value in assay [2] stood at 1.6. In addition, in [3], the Activity entry is “Dose-dependent effect”.
As for `CCCCOc1ccc2c(c1)OCC(c1ccc(O)cc1)C2` (centres undefined), in assay [3], the Activity entry is “Dose-dependent effect”.
Take `CC1(C)CCc2c(ccc3c2OCC(c2ccc(O)cc2)C3=O)O1` (centres undefined): in assay [2], the “fold change (FC)” value amounted to 1.6. Moreover, in [3], the Activity result was “Dose-dependent effect”.
Consider `CCCOc1ccc2c(=O)c(-c3ccc(O)cc3)coc2c1`, for which the outcome in [1], in assay [5], in assay [6], in assay [9], in [10] and in assay [12] was Active. The outcome in [4], in [7], in assay [8] and in [11] was inactive. The “fold change (FC)” value in assay [2] is listed as 1.3. Also, the Activity entry in assay [3] is “Dose-dependent effect”.
`CC(C)COc1ccc2c(=O)c(-c3ccc(O)cc3)coc2c1`: in assay [1], the outcome was Active. The “fold change (FC)” value in assay [2] is on record as 1.3. Also, the Activity entry in [3] is “Dose-dependent effect”.
Take `C#CCOc1ccc2c(=O)c(-c3ccc(O)cc3)coc2c1`: the “fold change (FC)” value in assay [2] is recorded as 1.6. In addition, in [3], the Activity result is “Dose-dependent effect”.
On the same counts, the results for `CCCCCCOc1ccc2c(=O)c(-c3ccc(O)cc3)coc2c1` are 1.3 and “Dose-dependent effect”.
Consider `CC#C[C@]1(O)CC[C@H]2[C@@H]3CCc4cc(O)ccc4[C@H]3CC[C@@]21C`, for which the result in assay [13] was Active.
In the case of `CCCCOc1ccc2c(=O)c(-c3ccc(O)cc3)coc2c1`, the “fold change (FC)” value in assay [2] worked out at 1.3. The Activity result in assay [3] is “Dose-dependent effect”.
On the same counts, the results for `COc1ccc(C(=O)Nc2ccc(OCC(C)C)cc2)c(OC)c1` are 1.6 and “Dose-dependent effect”.
Regarding `O=c1c(-c2ccc(O)cc2)coc2cc(O)ccc12`, in assay [14], the result was Active. The Activity entry in assay [3] was “Dose-dependent effect”.
With `O=c1c(-c2ccc(O)cc2)coc2cc(OCCN3CCCCC3)ccc12`, the “fold change (FC)” value in [2] is recorded as more than 2.4. Moreover, the Activity result in assay [3] was “Dose-dependent effect”.
Consider `O=c1c(-c2ccc(O)cc2)coc2cc(OCCN3CCCC3)ccc12`, for which the Activity result in assay [3] was “Dose-dependent effect”.
For the molecule `O=c1c(-c2ccc(O)cc2)coc2cc(OC3CCCC3)ccc12`, in assay [1], the result was Active. Moreover, in assay [2], the “fold change (FC)” value is on record as 1.3. Moreover, the Activity entry in assay [3] was “Dose-dependent effect”.
As for `CC1(C)C=Cc2cc3c(cc2O1)OCC(c1ccc(O)cc1)C3` (centres undefined), in assay [2], the “fold change (FC)” value was found to be 1.3. Besides, the Activity entry in assay [3] was “Dose-dependent effect”.
With `COc1ccc(C(=O)Nc2ccc(O)cc2)c(OC)c1`, the “fold change (FC)” value in [2] is on record as 1.3. Besides, in [3], the Activity result is “Dose-dependent effect”.
In the case of `CC1(C)C=Cc2c(ccc3c(=O)c(-c4ccc(B5OC(C)(C)C(C)(C)O5)cc4)coc23)O1`, in assay [3], the Activity result was “Dose-dependent effect”.
Take `Cc1cc2c(ccc3c(=O)c(-c4ccc(O)cc4)coc32)o1`: the “fold change (FC)” value in assay [2] was 1.6. For the same molecule, the Activity result in assay [3] was “Dose-dependent effect”.
On to `CC1(C)C=Cc2c(ccc3c(=O)c(-c4ccc(O)cc4)coc23)O1`, for which the Activity result in assay [3] is “Dose-dependent effect”.
As to `CCOc1ccc2c(=O)c(-c3ccc(O)cc3)coc2c1`, in assay [2], the “fold change (FC)” value is 1.6. Moreover, in assay [3], the Activity entry is “Dose-dependent effect”.
As for `CN(C)CCOc1ccc2c(=O)c(-c3ccc(O)cc3)coc2c1`, the Activity entry in assay [3] was “Dose-dependent effect”.
With `COc1ccc(NC(=O)c2ccc(OC)cc2OC)cc1`, the “fold change (FC)” value in assay [2] is recorded as 1.3. Besides, the Activity result in assay [3] is “Dose-dependent effect”.
For `CC1(C)CCc2c(ccc3c2OCC(c2ccc(O)cc2)C3)O1` (centres undefined), in [3], the Activity result is “Dose-dependent effect”.

The values above are taken from ChEMBL document CHEMBL3108693, “Design, synthesis, and osteogenic activity of daidzein analogs on human mesenchymal stem cells” (2014).
